Laboratory results taken from ChEMBL document CHEMBL3627608, “Crystal structures of human RIP2 kinase catalytic domain complexed with ATP-competitive inhibitors: Foundations for understanding inhibitor selectivity” (Bioorg Med Chem, 2015).
Values belong to the compound of their own block, whether it stands above or below them.

Assays:
[1] = target: Serine/threonine-protein kinase 26 (Homo sapiens) (UniProt Q9P289); assay: Inhibition of MST4 (unknown origin) at 10 uM after 120 mins P33 radiolabeled kinase activity assay
Chain of Serine/threonine-protein kinase 26 (Homo sapiens) (Q9P289 2-416 limits assumed): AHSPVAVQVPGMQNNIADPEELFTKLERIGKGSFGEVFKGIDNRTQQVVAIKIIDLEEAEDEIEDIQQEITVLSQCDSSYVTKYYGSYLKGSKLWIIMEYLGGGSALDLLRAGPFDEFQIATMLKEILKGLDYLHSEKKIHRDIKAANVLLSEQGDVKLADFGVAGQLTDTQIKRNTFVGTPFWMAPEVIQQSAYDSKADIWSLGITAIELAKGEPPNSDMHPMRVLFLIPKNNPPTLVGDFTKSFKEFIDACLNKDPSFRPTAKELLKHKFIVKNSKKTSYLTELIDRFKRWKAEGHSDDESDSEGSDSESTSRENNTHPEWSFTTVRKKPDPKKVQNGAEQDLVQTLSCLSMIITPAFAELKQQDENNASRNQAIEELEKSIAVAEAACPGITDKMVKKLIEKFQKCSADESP

[2] = target: Protein kinase C theta type (Homo sapiens) (UniProt Q04759); assay: Inhibition of PKCtheta (unknown origin) at 10 uM after 120 mins P33 radiolabeled kinase activity assay
Chain of Protein kinase C theta type (Homo sapiens) (Q04759 whole entry, looked up): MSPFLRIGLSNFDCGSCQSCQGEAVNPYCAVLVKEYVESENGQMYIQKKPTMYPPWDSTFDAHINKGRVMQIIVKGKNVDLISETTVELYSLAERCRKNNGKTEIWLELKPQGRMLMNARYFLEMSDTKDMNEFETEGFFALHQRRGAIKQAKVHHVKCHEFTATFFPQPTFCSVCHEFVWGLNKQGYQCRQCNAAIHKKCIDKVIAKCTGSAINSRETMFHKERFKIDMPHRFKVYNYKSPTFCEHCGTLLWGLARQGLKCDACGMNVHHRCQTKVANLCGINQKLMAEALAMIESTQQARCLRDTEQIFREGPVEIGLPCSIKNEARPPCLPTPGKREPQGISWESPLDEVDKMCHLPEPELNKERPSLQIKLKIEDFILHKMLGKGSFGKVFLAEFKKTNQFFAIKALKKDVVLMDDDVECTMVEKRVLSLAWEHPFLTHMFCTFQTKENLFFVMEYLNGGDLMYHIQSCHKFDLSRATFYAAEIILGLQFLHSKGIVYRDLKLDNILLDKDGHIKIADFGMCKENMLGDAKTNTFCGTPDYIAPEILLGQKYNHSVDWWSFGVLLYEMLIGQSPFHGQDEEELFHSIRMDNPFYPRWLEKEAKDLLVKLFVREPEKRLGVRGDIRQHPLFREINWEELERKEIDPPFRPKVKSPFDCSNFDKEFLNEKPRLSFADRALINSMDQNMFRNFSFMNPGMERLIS

[3] = target: TGF-beta receptor type-2 (Homo sapiens) (UniProt P37173); assay: Inhibition of TGFBR2 (unknown origin) at 10 uM after 120 mins P33 radiolabeled kinase activity assay
Chain of TGF-beta receptor type-2 (Homo sapiens) (P37173 whole entry): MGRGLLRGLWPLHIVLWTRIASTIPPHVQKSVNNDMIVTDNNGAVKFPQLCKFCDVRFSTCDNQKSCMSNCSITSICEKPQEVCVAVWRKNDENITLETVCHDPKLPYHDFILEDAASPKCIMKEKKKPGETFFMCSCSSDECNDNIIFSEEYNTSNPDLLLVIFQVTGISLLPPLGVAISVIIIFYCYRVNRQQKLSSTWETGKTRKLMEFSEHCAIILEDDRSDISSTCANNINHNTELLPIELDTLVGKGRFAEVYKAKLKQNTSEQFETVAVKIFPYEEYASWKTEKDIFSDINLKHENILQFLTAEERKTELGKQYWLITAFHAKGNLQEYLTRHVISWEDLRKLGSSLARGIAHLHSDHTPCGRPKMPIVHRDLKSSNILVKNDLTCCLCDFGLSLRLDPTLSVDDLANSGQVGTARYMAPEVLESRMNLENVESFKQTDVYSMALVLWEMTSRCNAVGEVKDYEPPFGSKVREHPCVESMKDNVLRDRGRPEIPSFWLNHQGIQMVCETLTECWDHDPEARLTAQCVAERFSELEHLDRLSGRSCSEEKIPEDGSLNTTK

[4] = target: Serine/threonine-protein kinase 16 (Homo sapiens) (UniProt O75716); assay: Inhibition of STK16 (unknown origin) at 10 uM after 120 mins P33 radiolabeled kinase activity assay
Chain of Serine/threonine-protein kinase 16 (Homo sapiens) (O75716 whole entry): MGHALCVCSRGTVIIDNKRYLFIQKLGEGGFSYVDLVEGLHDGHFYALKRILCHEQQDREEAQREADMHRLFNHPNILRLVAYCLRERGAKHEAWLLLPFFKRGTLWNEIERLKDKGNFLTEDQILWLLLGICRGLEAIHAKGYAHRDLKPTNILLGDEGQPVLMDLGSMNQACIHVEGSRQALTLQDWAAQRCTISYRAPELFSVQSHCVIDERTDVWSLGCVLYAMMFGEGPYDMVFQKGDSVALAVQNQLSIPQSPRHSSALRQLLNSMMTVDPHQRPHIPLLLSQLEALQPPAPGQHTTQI

[5] = test system: Fibroblast growth factor receptor; assay: Inhibition of FGFR (unknown origin) at 10 uM after 120 mins P33 radiolabeled kinase activity assay; conditions: Homo sapiens
[6] = target: Activin receptor type-1B (Homo sapiens) (UniProt P36896); assay: Inhibition of ALK4 (unknown origin) at 10 uM after 120 mins P33 radiolabeled kinase activity assay
Chain of Activin receptor type-1B (Homo sapiens) (P36896 whole entry): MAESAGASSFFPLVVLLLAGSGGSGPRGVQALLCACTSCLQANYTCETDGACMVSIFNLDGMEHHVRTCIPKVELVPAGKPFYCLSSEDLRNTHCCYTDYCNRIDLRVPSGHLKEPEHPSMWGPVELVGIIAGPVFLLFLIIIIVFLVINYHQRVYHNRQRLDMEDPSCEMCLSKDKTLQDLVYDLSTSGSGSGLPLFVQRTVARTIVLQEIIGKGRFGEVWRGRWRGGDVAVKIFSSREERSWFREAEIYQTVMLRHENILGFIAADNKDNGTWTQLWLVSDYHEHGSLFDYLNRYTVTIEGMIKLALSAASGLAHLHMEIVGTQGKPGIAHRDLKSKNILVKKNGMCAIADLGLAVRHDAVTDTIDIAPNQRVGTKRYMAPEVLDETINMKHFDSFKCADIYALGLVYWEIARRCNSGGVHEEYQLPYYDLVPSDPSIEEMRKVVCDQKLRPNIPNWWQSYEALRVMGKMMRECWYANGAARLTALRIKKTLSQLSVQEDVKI

[7] = target: Mitogen-activated protein kinase kinase kinase 3 (Homo sapiens) (UniProt Q99759); assay: Inhibition of MEKK3 (unknown origin) at 10 uM after 120 mins P33 radiolabeled kinase activity assay
Chain of Mitogen-activated protein kinase kinase kinase 3 (Homo sapiens) (Q99759 whole entry): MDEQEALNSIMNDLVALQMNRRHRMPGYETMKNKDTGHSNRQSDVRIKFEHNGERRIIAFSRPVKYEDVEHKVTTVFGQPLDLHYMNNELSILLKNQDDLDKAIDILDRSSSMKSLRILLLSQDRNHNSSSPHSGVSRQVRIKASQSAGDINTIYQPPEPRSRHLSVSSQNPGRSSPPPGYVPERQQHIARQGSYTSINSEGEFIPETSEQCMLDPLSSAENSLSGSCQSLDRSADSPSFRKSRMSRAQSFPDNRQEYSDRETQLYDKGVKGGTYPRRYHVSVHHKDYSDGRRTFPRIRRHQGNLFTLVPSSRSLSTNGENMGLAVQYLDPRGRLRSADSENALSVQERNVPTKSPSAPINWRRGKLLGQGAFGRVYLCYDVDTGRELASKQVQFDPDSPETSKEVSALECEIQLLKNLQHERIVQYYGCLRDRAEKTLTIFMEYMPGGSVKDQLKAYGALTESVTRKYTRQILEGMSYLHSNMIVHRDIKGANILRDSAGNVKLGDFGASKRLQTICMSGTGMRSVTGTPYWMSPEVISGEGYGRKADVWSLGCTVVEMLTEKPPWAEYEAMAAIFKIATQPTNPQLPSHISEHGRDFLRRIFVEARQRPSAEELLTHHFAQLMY

[8] = target: Mitogen-activated protein kinase 7 (Homo sapiens) (UniProt Q13164); assay: Inhibition of ERK5 (unknown origin) at 10 uM after 120 mins P33 radiolabeled kinase activity assay
Chain of Mitogen-activated protein kinase 7 (Homo sapiens) (Q13164 2-816 limits assumed): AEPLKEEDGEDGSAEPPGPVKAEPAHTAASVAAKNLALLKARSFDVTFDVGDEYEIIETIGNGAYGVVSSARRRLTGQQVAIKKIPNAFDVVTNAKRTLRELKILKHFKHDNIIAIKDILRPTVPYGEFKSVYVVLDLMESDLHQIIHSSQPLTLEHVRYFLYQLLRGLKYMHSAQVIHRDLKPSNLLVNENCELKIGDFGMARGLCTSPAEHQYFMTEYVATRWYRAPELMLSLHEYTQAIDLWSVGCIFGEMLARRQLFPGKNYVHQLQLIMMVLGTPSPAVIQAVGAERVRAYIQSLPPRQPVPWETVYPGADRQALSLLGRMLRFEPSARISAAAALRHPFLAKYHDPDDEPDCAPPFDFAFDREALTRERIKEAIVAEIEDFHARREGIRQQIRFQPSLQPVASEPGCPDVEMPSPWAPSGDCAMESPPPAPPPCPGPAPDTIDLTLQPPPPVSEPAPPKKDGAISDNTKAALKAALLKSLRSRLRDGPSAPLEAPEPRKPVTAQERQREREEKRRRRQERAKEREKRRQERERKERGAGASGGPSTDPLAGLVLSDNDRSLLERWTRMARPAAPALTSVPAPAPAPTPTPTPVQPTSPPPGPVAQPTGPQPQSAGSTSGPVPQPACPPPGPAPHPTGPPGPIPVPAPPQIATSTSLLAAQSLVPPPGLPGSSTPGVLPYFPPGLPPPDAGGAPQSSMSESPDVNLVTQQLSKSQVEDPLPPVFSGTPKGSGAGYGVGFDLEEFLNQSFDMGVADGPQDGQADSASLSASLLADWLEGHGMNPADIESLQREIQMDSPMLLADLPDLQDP

inhibition [1]: 3.31%
Structure (SMILES): COCCNC(=O)c1ccc2c(c1)nc(-c1cnc(-c3ccc(Cl)cc3)[nH]1)n2CCOC

inhibition [2]: -5.48%
inhibition [3]: 96.6%
inhibition [4]: 7.44%
inhibition [5]: 46.7%
inhibition [6]: 42.4%
inhibition [7]: 9.88%
Structure (SMILES): CS(=O)(=O)c1cccc(Nc2nccc(-c3sc(N4CCOCC4)nc3-c3cccc(NS(=O)(=O)c4c(F)cccc4F)c3)n2)c1

inhibition [8]: -8.59%
Structure (SMILES): CC(C)(C)c1cc(NC(=O)Nc2ccc(Oc3ccncc3)cc2)no1
